For one assay, the target named is T1, human TGR5 (Homo sapiens, UniProt Q8TDU6).
T1 construct: expressed in transfected cells; host or cells: HEK293
T1 sequence (Q8TDU6 1-330): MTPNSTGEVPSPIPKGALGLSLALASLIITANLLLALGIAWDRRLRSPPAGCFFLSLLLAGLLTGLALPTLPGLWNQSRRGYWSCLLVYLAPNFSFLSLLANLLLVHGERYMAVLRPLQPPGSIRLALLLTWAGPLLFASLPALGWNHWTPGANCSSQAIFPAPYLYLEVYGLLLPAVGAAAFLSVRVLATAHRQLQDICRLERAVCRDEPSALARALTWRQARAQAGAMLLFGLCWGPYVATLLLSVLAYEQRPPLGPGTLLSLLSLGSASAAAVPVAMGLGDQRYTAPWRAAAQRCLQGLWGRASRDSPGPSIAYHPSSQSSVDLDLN
Kind of assay: Cell-based TGR5 assay (cAMP generation, HTRF). The conditions noted are these: HEK293 cells stably transfected with human TGR5; cAMP by HTRF; 30 minutes at 37° C. An outline of the steps: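 Read-out was HTRF detection of cAMP, converted to concentration via a standard curve and fitted (3-parameter logistic) for pEC50 and maximal response. Agonist stimulation used HEK293 cells stably transfected with human TGR5, incubated 30 min at 37° C in IBMX-containing buffer at 0.05 nM to 10 μM compound.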
For the molecule `CN(CCCCNC(=O)NCCOCCOCCNC(=O)NCCCCNC(=O)NCCOCCOCCNC(=O)NCCCCN(C)S(=O)(=O)c1ccc(Cl)c(COC2(c3cnccc3-c3ccccc3OC3CC3)CC2)c1)S(=O)(=O)c1ccc(Cl)c(COC2(c3cnccc3-c3ccccc3OC3CC3)CC2)c1` [Compound I-736, 3-(4-[N-methyl[4-chloro-3-([1-[4-(2-cyclopropoxyphenyl)pyridin-3-yl]cyclopropoxy]methyl)benzene]sulfonamido]butyl)-1-[2-(2-[2-[([4-[([2-[2-(2-[[(4-[N-methyl[4-chloro-3-([1-[4-(2-cyclopropoxyphenyl)pyridin-3-yl]cyclopropoxy]methyl)benzene]sulfonamido]butyl)carbamoyl]amino]ethoxy)ethoxy]ethyl]carbamoyl)amino]butyl]carbamoyl)amino]ethoxy]ethoxy)ethyl]urea], the “pEC50 Human TGR5” value is on record as “B (B is a pEC50 of 6 to 6.9)”.

In the case of `CN(CCCCNC(=O)NCCOCCOCCNC(=O)NCCOCCOCCNC(=O)NCCCCN(C)S(=O)(=O)c1ccc(Cl)c(COC2(c3cnccc3-c3ccccc3OC3CC3)CC2)c1)S(=O)(=O)c1ccc(Cl)c(COC2(c3cnccc3-c3ccccc3OC3CC3)CC2)c1` [Compound I-737, 3-(4-[N-methyl[4-chloro-3-([1-[4-(2-cyclopropoxyphenyl)pyridin-3-yl]cyclopropoxy]methyl)benzene]sulfonamido]butyl)-1-[2-(2-[2-[([2-[2-(2-[[(4-[N-methyl[4-chloro-3-([1-[4-(2-cyclopropoxyphenyl)pyridin-3-yl]cyclopropoxy]methyl)benzene]sulfonamido]butyl)carbamoyl]amino]ethoxy)ethoxy]ethyl]carbamoyl)amino]ethoxy]ethoxy)ethyl]urea], the “pEC50 Human TGR5” value is recorded as “B (B is a pEC50 of 6 to 6.9)”.

Staying with this assay, now noted: HEK293 cells stably transfected with human TGR5; cAMP by HTRF; 30 minutes at 37° C.; read-out: pEC50 Human TGR5 (converted).
Regarding `O=C(NC[C@H](O)[C@@H](O)[C@H](O)[C@H](O)CO)c1ccc(CCc2ccc(Cl)c(COC3(c4cnccc4-c4ccccc4OC4CC4)CC3)c2)cc1` [Compound I-724, 4-(4-Chloro-3-((1-(4-(2-cyclopropoxyphenyl)pyridin-3-yl)cyclopropoxy)methyl)phenethyl)-N-((2S,3R,4R,5R)-2,3,4,5,6-pentahydroxyhexyl)benzamide], the EC50 is 126 to 1000 nM.

`CN(C)C(=O)c1ccc(Cl)c(COC2(c3cnccc3-c3ccccc3OC3CC3)CC2)c1` [Compound I-725, 4-Chloro-3-((1-(4-(2-cyclopropoxyphenyl)pyridin-3-yl)cyclopropoxy)methyl)-N,N-dimethylbenzamide]: the EC50 is 126 to 1000 nM.

As to `O=C(NCCCCCOc1ccc(Cl)c(COC2(c3cnccc3-c3ccccc3OC3CC3)CC2)c1)NC[C@H](O)[C@@H](O)[C@H](O)[C@H](O)CO` [Compound I-726, 1-(5-(4-chloro-3-((1-(4-(2-cyclopropoxyphenyl)pyridin-3-yl)cyclopropoxy)methyl)phenoxy)pentyl)-3-((2S,3R,4R,5R)-2,3,4,5,6-pentahydroxyhexyl)urea], the EC50 was 126 to 1000 nM.

Consider `O=C(NC[C@H](O)[C@@H](O)[C@H](O)[C@H](O)CO)c1cccc(OCc2ccc(Cl)c(COC3(c4cnccc4-c4ccccc4OC4CC4)CC3)c2)c1` [Compound I-727, 3-((4-chloro-3-((1-(4-(2-cyclopropoxyphenyl)pyridin-3-yl)cyclopropoxy)methyl)benzyl)oxy)-N-((2S,3R,4R,5R)-2,3,4,5,6-pentahydroxyhexyl)benzamide], for which the EC50 is 126 to 1000 nM.

For the molecule `CC(C)N(CCCCNC(=O)[C@@H](O)[C@@H](O)[C@H](O)[C@@H](O)CO)S(=O)(=O)c1cc(COC2(c3cnccc3-c3ccccc3OC3CC3)CC2)c(Cl)cc1F` [Compound I-728, (2S,3S,4R,5S)-2,3,4,5,6-pentahydroxy-N-[4-[N-(propan-2-yl)[4-chloro-5-([1-[4-(2-cyclopropoxyphenyl)pyridin-3-yl]cyclopropoxy]methyl)-2-fluorobenzene]sulfonamido]butyl]hexanamide], the EC50 was less than 100 nM.

`CC(=O)NS(=O)(=O)c1ccc(Cl)c(COC2(c3cnccc3-c3ccccc3OC3CC3)CC2)c1` [Compound I-729, N-[[4-chloro-3-([1-[4-(2-cyclopropoxyphenyl)pyridin-3-yl]cyclopropoxy]methyl)benzene]sulfonyl]acetamide]: the EC50 was 1260 to 10000 nM.

On to `COc1cc(Cl)c(COC2(c3cnccc3-c3ccccc3OC3CC3)CC2)cc1S(=O)(=O)N(C)C` [Compound I-730, 4-chloro-5-([1-[4-(2-cyclopropoxyphenyl)pyridin-3-yl]cyclopropoxy]methyl)-2-methoxy-N,N-dimethylbenzene-1-sulfonamide], for which the EC50 is less than 100 nM.

With `CN(C)S(=O)(=O)c1cc(COC2(c3cnccc3-c3ccccc3OC3CC3)CC2)c(Cl)cc1O` [Compound I-731, 4-chloro-5-([1-[4-(2-cyclopropoxyphenyl)pyridin-3-yl]cyclopropoxy]methyl)-2-hydroxy-N,N-dimethylbenzene-1-sulfonamide], the EC50 was less than 100 nM.

Regarding `CC(=O)N1CCCN(S(=O)(=O)c2ccc(Cl)c(COC3(c4cnccc4-c4ccccc4OC4CC4)CC3)c2)CC1` [Compound I-732, 1-(4-[[4-chloro-3-([1-[4-(2-cyclopropoxyphenyl)pyridin-3-yl]cyclopropoxy]methyl)benzene]sulfonyl]-1,4-diazepan-1-yl)ethan-1-one], the EC50 was less than 100 nM.

Consider `COc1ccc2c(n1)CCN(S(=O)(=O)c1ccc(Cl)c(COC3(c4cnccc4-c4ccccc4OC4CC4)CC3)c1)C2` [Compound I-733, 6-[[4-chloro-3-([1-[4-(2-cyclopropoxyphenyl)pyridin-3-yl]cyclopropoxy]methyl)benzene]sulfonyl]-2-methoxy-5,6,7,8-tetrahydro-1,6-naphthyridine], for which the EC50 was less than 100 nM.

For `O=S(=O)(c1ccc(Cl)c(COC2(c3cnccc3-c3ccccc3OC3CC3)CC2)c1)N1CCc2nc(O)ccc2C1` [Compound I-734, 6-[[4-chloro-3-([1-[4-(2-cyclopropoxyphenyl)pyridin-3-yl]cyclopropoxy]methyl)benzene]sulfonyl]-5,6,7,8-tetrahydro-1,6-naphthyridin-2-ol], the EC50 was less than 100 nM.

For `[2H]C([2H])(NC(=O)N[C@@H](CO)[C@@H](O)[C@H](O)[C@H](O)CO)C([2H])([2H])C([2H])([2H])C([2H])([2H])N(C)S(=O)(=O)c1ccc(Cl)c(COC2(c3cnccc3-c3ccccc3OC3CC3)CC2)c1` [Compound I-735, 1-(4-[N-methyl[4-chloro-3-([1-[4-(2-cyclopropoxyphenyl)pyridin-3-yl]cyclopropoxy]methyl)benzene]sulfonamido](d8)butyl)-3-[(2S,3R,4S,5R)-1,3,4,5,6-pentahydroxyhexan-2-yl]urea], the EC50 is less than 100 nM.

As for `CCC(=O)OC[C@H](NC(=O)NCCCCN(C)S(=O)(=O)c1ccc(Cl)c(COC2(c3cnccc3-c3ccccc3OC3CC3)CC2)c1)[C@@H](OC(=O)CC)[C@H](OC(=O)CC)[C@@H](COC(=O)CC)OC(=O)CC` [Compound I-738, (2R,3S,4R,5S)-5-[[(4-[N-methyl[4-chloro-3-([1-[4-(2-cyclopropoxyphenyl)pyridin-3-yl]cyclopropoxy]methyl)benzene]sulfonamido]butyl)carbamoyl]amino]-1,2,4,6-tetrakis(propanoyloxy)hexan-3-yl propanoate], the EC50 is 126 to 1000 nM.

As for `CSc1ccccc1-c1ccncc1C1(OCc2cc(Cl)ccc2Cl)CC1` [Compound I-739, 3-(1-((2,5-dichlorobenzyl)oxy)cyclopropyl)-4-(2-(methylthio)phenyl)pyridine], the EC50 is 126 to 1000 nM.

With `CC(C)(OCc1cc(Cl)ccc1Cl)c1cnccc1-c1ccccc1OC1CC1` [Compound I-740, 4-(2-cyclopropoxyphenyl)-3-(2-((2,5-dichlorobenzyl)oxy)propan-2-yl)pyridine], the EC50 is less than 100 nM.

In the case of `Clc1ccc(Cl)c(COC2(c3cnccc3-c3ccccc3OC3CC3)CCC2)c1` [Compound I-741, 4-(2-cyclopropoxyphenyl)-3-(1-((2,5-dichlorobenzyl)oxy)cyclobutyl)pyridine], the EC50 was less than 100 nM.

Regarding `Clc1ccc(Cl)c(COC2(c3cnccc3-c3ccccc3OC3CC3)CCCC2)c1` [Compound I-742, 4-(2-cyclopropoxyphenyl)-3-(1-((2,5-dichlorobenzyl)oxy)cyclopentyl)pyridine], the EC50 was 126 to 1000 nM.

On to `Clc1ccc(Cl)c(COC2(c3cnccc3-c3ccccc3OC3CC3)CCOC2)c1` (stereo not shown) [Compound I-743, 4-(2-cyclopropoxyphenyl)-3-(3-((2,5-dichlorobenzyl)oxy)tetrahydrofuran-3-yl)pyridine], for which the EC50 was less than 100 nM.

As to `CC(C)N(CCCCNC(=O)N[C@@H](CO)[C@@H](O)[C@H](O)[C@H](O)CO)S(=O)(=O)c1ccc(Cl)c(CNC2(c3cnccc3-c3ccccc3OC3CC3)CC2)c1` [Compound I-744, 4-chloro-3-(((1-(4-(2-cyclopropoxyphenyl)pyridin-3-yl)cyclopropyl)amino)methyl)-N-isopropyl-N-(4-(3-((2S,3R,4S,5R)-1,3,4,5,6-pentahydroxyhexan-2-yl)ureido)butyl)benzenesulfonamide], the EC50 was less than 100 nM.

With `CC(OCc1cc(Cl)ccc1Cl)c1cnccc1-c1ccccc1OC1CC1` (stereo not shown) [Compound I-745, 4-(2-cyclopropoxyphenyl)-3-(1-((2,5-dichlorobenzyl)oxy)ethyl)pyridine], the EC50 was 126 to 1000 nM.

Source of the values: patent publication US12084472B2 (Ardelyx, Inc., priority 2015, dated 2024).
